This note sets out measurements from ChEMBL document CHEMBL6087385, “Synthesis and biological evaluation of Ribo 7-N/O/S pyrimidine 9-deaza C-nucleoside analogs as new antiviral agents for inhibiting HCV RNA-dependent RNA polymerases” (Eur J Med Chem, 2024).

A word on the IC50: it is the concentration at which inhibition is half-maximal. The EC50 is the concentration that produces a half-maximal response.

Calls of active or inactive are those of the source. No cut-off for these calls is given here.

Experiment [1] has as its system Hepatitis C virus. The experiment can be described thus: Antiviral activity against Hepatitis C virus infected in Ava5 cells assessed as inhibition of viral RNA replication incubated for 72 hrs by RT-PCR analysis. The format is functional, organism-based. The following applies: for Activity: Hepacivirus hominis.
Experiment [2] relates to Hepatitis C virus. The experiment can be described thus: Anti-viral activity against HCV genotype 1b infected in human Huh-luc cells. The format is functional, organism-based, Hepacivirus hominis.
The test system of experiment [3] is Hepatitis C virus. Kind of experiment: Antiviral activity against HCV genotype 1a infected in GLuc-1 cells. The format is functional, organism-based, Hepacivirus hominis.
Experiment [4] has as its system Hepatitis C virus. The experiment can be described thus: Anti-viral activity against HCV genotype 2a infected in Lunet-CD81 cells. The format is functional, organism-based, Hepacivirus hominis.
Experiment [5] deals with Hepatitis C virus. Kind of experiment: Anti-viral activity against HCV genotype 2a infected in 2aLucNeo-25 cells. The format is functional, organism-based, Hepacivirus hominis.
Experiment [6] relates to Hepatitis C virus. Kind of experiment: Antiviral activity against HCV infected in human Huh-7 cells assessed as inhibition of viral RNA replication incubated for 24 hrs by ribonuclease protection assay. The format is functional, organism-based, Hepacivirus hominis. The following applies: Huh-7, 24 h.

Consider `C[C@@]1(O)[C@H](O)[C@@H](CO)O[C@H]1c1coc2c(=O)[nH]c(N)nc12`, for which the outcome in the experiment on Hepatitis C virus [1] was inactive.

With `C[C@@]1(O)[C@H](O)[C@@H](CO)O[C@H]1c1c[nH]c2c(=O)[nH]c(N)nc12`, in the experiment on Hepatitis C virus [1], the outcome was inactive.

Consider `C[C@@]1(O)[C@H](O)[C@@H](CO)O[C@H]1c1coc2c(N)nc(N)nc12`, for which the outcome with Hepatitis C virus [1] was inactive.

For the compound `C[C@@]1(O)[C@H](O)[C@@H](COP(=O)(O)OP(=O)(O)OP(=O)(O)O)O[C@H]1c1coc2c(N)ncnc12`, the IC50 in the experiment with Hepatitis C virus [1] (Ava5, 72 h) stood at 5000 nM.

In the case of `C[C@@]1(O)[C@H](O)[C@@H](CO)O[C@H]1c1coc2c(=S)[nH]cnc12`, in the experiment on Hepatitis C virus [1], the result was inactive.

As for `C[C@@]1(O)[C@H](O)[C@@H](CO)O[C@H]1c1csc2c(N)ncnc12`, the result in the experiment on Hepatitis C virus [1] was inactive.

With `C[C@@]1(O)[C@H](O)[C@@H](CO)O[C@H]1c1coc2c(=O)[nH]cnc12`, the outcome in the experiment with Hepatitis C virus [1] was inactive.

Regarding `C[C@@]1(O)[C@H](O)[C@@H](CO)O[C@H]1n1cnc2c(N)ncnc21`, the half-maximal effective concentration (EC50) in the experiment on Hepatitis C virus [2] worked out at 300 nM; in the experiment on Hepatitis C virus [3], 230 nM; with Hepatitis C virus [4], 300 nM; in the experiment with Hepatitis C virus [5] it was 1430 nM; with Hepatitis C virus [6] it was 300 nM.
